Reference: patent US11866509B2, “Humanized antibodies against CEACAM1” (Famewave Ltd., priority 2014, dated 2024)

T1: CEACAM1 (Homo sapiens, UniProt P13688)
T1 sequence (P13688 35-526): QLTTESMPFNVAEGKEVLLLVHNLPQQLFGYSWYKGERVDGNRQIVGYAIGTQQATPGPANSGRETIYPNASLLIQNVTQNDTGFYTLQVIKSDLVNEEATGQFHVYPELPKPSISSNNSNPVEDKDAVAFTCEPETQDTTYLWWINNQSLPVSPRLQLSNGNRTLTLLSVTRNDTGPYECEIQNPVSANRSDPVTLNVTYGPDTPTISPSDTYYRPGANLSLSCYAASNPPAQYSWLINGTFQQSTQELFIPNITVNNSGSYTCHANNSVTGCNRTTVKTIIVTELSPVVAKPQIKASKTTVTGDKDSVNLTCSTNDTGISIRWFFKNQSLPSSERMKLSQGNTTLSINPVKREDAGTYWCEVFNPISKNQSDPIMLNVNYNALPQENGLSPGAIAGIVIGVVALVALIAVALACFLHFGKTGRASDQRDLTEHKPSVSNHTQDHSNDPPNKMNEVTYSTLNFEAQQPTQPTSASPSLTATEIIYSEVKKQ

B1: CM-10: chimeric anti-CEACAM-1 antibody disclosed in WO 2013/054331 (antibody, V domains shown)
VH: QVQLQQSGAELVRPGTSVKVSCKASGYAFTNNLIEWVKQRPGQGLEWIGVINPGSGDTNYNEKFKGKATLTADKSSNTAYMQLSSLTSDDSAVYFCARGDYYGGFAVDYWGQGTSVTVSS
VL: DIQMTQTTSSLSASLGDRVTISCRTSQDIGNYLNWYQQKPDGTVKLLIYYTSRLHSGVPSRFSGSGSGTDYSLTISNLEQEDIATYFCQQGKSLPRTFGGGTKLEIK

How the values were obtained:
[1] = system: CEACAM1 expression on sk-mel-2 cells; experiment: CEACAM1 extracellular staining by FACS, W.T. B-Raf mutated N-Ras cells; type: cell-based, human; details: 1 μM
Experimental: Volume equivalents of DMSO (vehicle) were used as control. […] Cells were then analyzed for CEACAM1 protein expression by FACS as described above. Vemurafenib-resistant cell lines were generated by gradual increase of the inhibitor's concentration in culture, up to 0.32 μM. […] Cells were then tested for CEACAM1 expression using MRG1 (murine antibody to human CEACAM1) in flow cytometry as described above. Total RNA was extracted with TRIZOL and cDNA was generated with a reverse transcriptase, according to routine protocols.

[2] = system: B-Raf V600E cell samples (526mel, 624mel); experiment: T-cell induced killing of melanoma cells, LDH release; type: cell-based, human; details: 1 μM, effector-target ratio 5:1, overnight
Experimental: More specifically, whereas only 50% ( 3/6) of the melanoma cells having a wild type B-Raf, i.e. a valine in position 600, expressed detectable levels of CEACAM1 (Ct of 36 and less), 100% (18/18) of the melanoma cells having a mutated B-Raf, i.e. a glutamic acid in position 600, expressed detectable levels of CEACAM1 (Ct of 36 and less). • B. CEACAM1 extracellular staining of cancer cells treated with B-Raf or MEK inhibitors. […] At each time point, CEACAM1 expression on the cells was determined by FACS. Volume equivalents of DMSO (vehicle) were used as control. […] Inhibitor-resistant cancer cells show increase in CEACAM1 expression and restored activity of MAPK pathway. Two vemurafenib-sensitive B-Raf V600E cell samples (526mel, 624mel) and vemurafenib-resistant cell lines derived therefrom were incubated for 2 days with 1 μM vemurafenib. Cells were then analyzed for CEACAM1 protein expression by FACS as described above. […] MAPK activity was measured in vemurafenib-sensitive and vemurafenib-resistant B-Raf V600E (624mel) cell samples by immunoblotting for phosphorylated ERK1/2 (pERK, Thr202/Tyr204), total ERK1/2 and actin after 24 hours of exposure to 160 nM vemurafenib. […] Initial vemurafenib concentration was 0.01 of the determined IC50 (0.64 nM). […] Cell killing was determined by LDH release. […]

CEACAM1 = molecular target: T1, CEACAM1; details: WO 2010/125571, WO 2013/054331; cited from earlier work

Row | Molecule | effect on CEACAM1 expression levels [1] | sensitization to cytotoxic T cells [2] | selectivity to CEACAM1 (CEACAM1)
1 | CCCS(=O)(=O)Nc1ccc(F)c(C(=O)c2c[nH]c3ncc(-c4ccc(Cl)cc4)cc23)c1F [vemurafenib] | no effect | significantly sensitizes melanoma cells to cytotoxic T cells | –
2 | B1 | – | – | highly selective to CEACAM1
